According to PMC5093981 (Malaria Journal, 2016):

How the values were obtained:
[1] = test system: PfRuvB3; assay: PfRuvB3 unwinding activity: requirement of co-factors and effects of salt/EDTA; type: biochemical, Plasmodium falciparum; settings: for Relative activity (%), PfRuvB3 unwinding activity: standard reaction = 35
Procedure: (§1) Unwinding of [^32P]-labelled partial duplex DNA was employed as a measurement of helicase activity. The reaction mixture (10 µl) contained 20 mM Tris–HCl pH 9.0, 8 mM DTT, 2 mM MgCl2, 2 mM ATP, 10 mM KCl, 4% (w/v) sucrose, […] BSA, [^32P]-labelled DNA duplex substrate (Table 1) and purified PfRuvB3. The assay was performed at 37 °C for 90 min (unless indicated otherwise) and terminated with addition of 10X DNA loading dye (Fermentas, USA) and further incubation at 37 °C for 5 min. Helicase substrate and product were separated by 12% non-denaturing PAGE and then the gel was exposed to an X-ray film. DNA unwinding was quantified by densitometric analysis of exposed substrate and product bands using GeneTools (Syngene). Percent unwinding is calculated using the following formula: [band density of product [single-stranded (ss)DNA] / (band density of ssDNA + band density of substrate (duplex DNA)] × 100 minus [percent unwinding in the absence of enzyme].
The ability of PfRuvB3 to hydrolyze different NTPs was studied by including 2 mM dATP, dCTP, dGTP, or dTTP in place of ATP in the standard reaction assay. The effects of ATP concentrations ranging from 0.3 to 20 mM on helicase activity were also determined. Divalent cation requirement was investigated mixture 2 mM CaCl2, CuCl2, NiSO4, ZnCl2, FeSO4, MnCl2 or MgSO4 in place of MgCl2. Effects of salt (0-200 mM NaCl in place of 10 mM KCl) and EDTA (5 mM) also were evaluated.

[2] = target: PfRuvB3; assay: Effect of DNA helicase inhibitors on PfRuvB3 unwinding (helicase) activity; type: biochemical, Plasmodium falciparum; settings: recombinant PfRuvB3; M13-17-mer duplex DNA pre-incubated with 0.1 to 50 μM drug for 10 min; 37 °C 90 min
Procedure: as §1
Known DNA helicase inhibitors, aphidicolin genistein, daunorubicin, doxorubicin, mitoxantrone, and netropsin (Sigma, USA) were prepared as 10^−2 M stock solutions in dimethylsulfoxide (DMSO) and stored at −20 °C until used. All compounds were diluted with 10 mM Tris–HCl, pH 9.0 to specified concentrations for the assay. M13-17-mer duplex DNA was pre-incubated with 0.1 to 50 μM drug for 10 min prior to addition to the standard helicase assay mixture. The 0.5% (v/v final concentration) of DMSO was used as solvent control to determine its effects on helicase activity. The dose–response curves of relative activities of PfRuvB3 and various drug concentrations were generated, and half-maximal inhibitory concentration (IC50), the concentration of compound to inhibit enzyme activity by 50%, was obtained using GraphPad Prism 6.01 software.

[3] = test system: parasite growth; design: method as in PMID 16772048; settings: read-out: IC50, parasite growth inhibition; cited from earlier work
[4] = target: P. falciparum 45 kDa helicase (PfH45); design: method as in PMID 17822710; settings: cited from earlier work
[5] = target: human DNA helicase (HDH II); design: method as in PMID 1614415; settings: cited from earlier work
[6] = target: P. falciparum DNA helicase A (PfDH A); design: method as in PMID 16772048; settings: cited from earlier work
[7] = target: P. falciparum UvrD helicase (PfUDN); settings: cited from earlier work
[8] = target: P. falciparum 60 kDa DNA helicase (PfDH60); design: method as in PMID 16884495; settings: cited from earlier work
[9] = test system: P. falciparum Dbp5/DDX19 homolog (PfD66); design: method as in PMID 21980563; settings: cited from earlier work
[10] = 2 mM divalent cation salt in place of MgCl2, 1 μg PfRuvB3
[11] = 2 mM dNTP in place of ATP, 1 μg PfRuvB3

Question: Which “Relative activity (%), PfRuvB3 unwinding activity” value (“Relative activity (%)” below) [1, 10] does the source give for [Ca+2].[Cl-].[Cl-] [CaCl2] here?
Answer: The value was under 2%.

Question: With [Cl][Cu][Cl] [CuCl2] as the molecule, how does the “Relative activity (%)” value [1, 10] read?
Answer: Its value is 36%.

Question: For O=C(O)CN(CCN(CC(=O)O)CC(=O)O)CC(=O)O [EDTA], which “Relative activity (%)” value ([1]; +EDTA (5 mM)) is on record?
Answer: Its value is under 2%.

Question: What about the Helicase function ([1]; EDTA 5 mM added to reaction mixture) of the same molecule?
Answer: Its Helicase function is “complete loss of helicase function”.

Question: With O=S(=O)([O-])[O-].[Fe+2] [FeSO4] as the molecule, how does the “Relative activity (%)” value [1, 10] read?
Answer: Its value is under 2%.

Question: Which “Relative activity (%)” value [1, 10] does the source give for O=S(=O)([O-])[O-].[Mg+2] [MgSO4] here?
Answer: Its value is 37%.

Question: With [Cl][Mn][Cl] [MnCl2] as the molecule, how does the “Relative activity (%)” value [1, 10] read?
Answer: Its value is under 2%.

Question: With [Cl-].[Na+] [NaCl] as the molecule, how does the “Unwinding activity of PfRuvB3” value ([1]; 100 mM NaCl) read?
Answer: Its value is “almost absent”.

Question: What about the “Relative activity (%)” value ([1]; +NaCl (200 mM)) of the same molecule?
Answer: The value was under 2%.

Question: And the Enzyme activity inhibited ([1]; NaCl 200 mM)?
Answer: Its Enzyme activity inhibited is about 98%.

Question: For [Cl][Ni][Cl] [NiCl2], which “Relative activity (%)” value [1, 10] is on record?
Answer: Its value is 34%.

Question: For [Cl-].[Cl-].[Zn+2] [ZnCl2], which “Relative activity (%)” value [1, 10] is on record?
Answer: The value was 30%.

Question: For C[C@@]1(CO)[C@H](O)CC[C@@]2(C)[C@H]1CC[C@H]1C[C@@H]3C[C@@]12CC[C@]3(O)CO [aphidicolin], which IC50 [2] is on record?
Answer: Its IC50 is over 50000 nM.

Question: Which “Relative activity (%)” value [1, 11] does the source give for Nc1ncnc2c1ncn2[C@H]1C[C@H](O)[C@@H](COP(=O)(O)OP(=O)(O)OP(=O)(O)O)O1 [dATP] here?
Answer: Its value is 33%.

Question: With Nc1ccn([C@H]2C[C@H](O)[C@@H](COP(=O)(O)OP(=O)(O)OP(=O)(O)O)O2)c(=O)n1 [dCTP] as the molecule, how does the “Relative activity (%)” value [1, 11] read?
Answer: The value was under 2%.

Question: For Nc1nc2c(ncn2[C@H]2C[C@H](O)[C@@H](COP(=O)(O)OP(=O)(O)OP(=O)(O)O)O2)c(=O)[nH]1 [dGTP], which “Relative activity (%)” value [1, 11] is on record?
Answer: The value was under 2%.

Question: Which “Relative activity (%)” value [1, 11] does the source give for Cc1cn([C@H]2C[C@H](O)[C@@H](COP(=O)(O)OP(=O)(O)OP(=O)(O)O)O2)c(=O)[nH]c1=O [dTTP] here?
Answer: Its value is under 2%.

Question: What does the source list for COc1cccc2c1C(=O)c1c(O)c3c(c(O)c1C2=O)C[C@@](O)(C(C)=O)C[C@@H]3O[C@H]1C[C@H](N)[C@H](O)[C@H](C)O1 [daunorubicin]?
Answer: IC50 [3]: 2500 nM; IC50 [4]: 5000 nM; IC50 [5]: 6230 nM; IC50 [6]: 2000 nM; IC50 [7]: 4400 nM; IC50 [8]: 3000 nM; IC50 [2]: 760 nM

Question: What does the source list for COc1cccc2c1C(=O)c1c(O)c3c(c(O)c1C2=O)C[C@@](O)(C(=O)CO)C[C@@H]3O[C@H]1C[C@H](N)[C@H](O)[C@H](C)O1 [doxorubicin]?
Answer: IC50 [3]: 1500 nM; IC50 [2]: 2600 nM

Question: For O=c1c(-c2ccc(O)cc2)coc2cc(O)cc(O)c12 [genistein], which IC50 [2] is on record?
Answer: The IC50 was over 50000 nM.

Question: With O=C1c2c(O)ccc(O)c2C(=O)c2c(NCCNCCO)ccc(NCCNCCO)c21 [mitoxantrone] as the molecule, how does the IC50 [2] read?
Answer: Its IC50 is over 50000 nM.

Question: For Cn1cc(NC(=O)c2cc(NC(=O)CN=C(N)N)cn2C)cc1C(=O)NCCC(=N)N [netropsin], which IC50 [4] is on record?
Answer: Its IC50 is 800 nM.

Question: What about the IC50 [9] of the same molecule?
Answer: The IC50 was 3200 nM.

Question: And the IC50 [7]?
Answer: The IC50 was 3300 nM.

Question: What about the IC50 [8] of the same molecule?
Answer: The IC50 was 500 nM.

Question: What about the IC50 [2] of the same molecule?
Answer: The IC50 was 7090 nM.
